Read-outs that look alike come from different tables or passages of the source.
Tests used:
bovine eNOS = target: T1, bovine eNOS (Bos taurus, UniProt P29473); experiment: NOS inhibition, oxyhemoglobin (hemoglobin capture) test, recombinant eNOS; assay type: biochemical; conditions: recombinant enzyme, 10 µM arginine, triplicate, NI = <50% inhibition at 100 μM; for inhibition at 100 µM: read-out: IC50 (μM) eNOS (Bovine)
T1 construct: Full-length recombinant rat nNOS, mouse iNOS, bovine eNOS; made in house; host or cells: Escherichia coli
T1 sequence (P29473 whole entry): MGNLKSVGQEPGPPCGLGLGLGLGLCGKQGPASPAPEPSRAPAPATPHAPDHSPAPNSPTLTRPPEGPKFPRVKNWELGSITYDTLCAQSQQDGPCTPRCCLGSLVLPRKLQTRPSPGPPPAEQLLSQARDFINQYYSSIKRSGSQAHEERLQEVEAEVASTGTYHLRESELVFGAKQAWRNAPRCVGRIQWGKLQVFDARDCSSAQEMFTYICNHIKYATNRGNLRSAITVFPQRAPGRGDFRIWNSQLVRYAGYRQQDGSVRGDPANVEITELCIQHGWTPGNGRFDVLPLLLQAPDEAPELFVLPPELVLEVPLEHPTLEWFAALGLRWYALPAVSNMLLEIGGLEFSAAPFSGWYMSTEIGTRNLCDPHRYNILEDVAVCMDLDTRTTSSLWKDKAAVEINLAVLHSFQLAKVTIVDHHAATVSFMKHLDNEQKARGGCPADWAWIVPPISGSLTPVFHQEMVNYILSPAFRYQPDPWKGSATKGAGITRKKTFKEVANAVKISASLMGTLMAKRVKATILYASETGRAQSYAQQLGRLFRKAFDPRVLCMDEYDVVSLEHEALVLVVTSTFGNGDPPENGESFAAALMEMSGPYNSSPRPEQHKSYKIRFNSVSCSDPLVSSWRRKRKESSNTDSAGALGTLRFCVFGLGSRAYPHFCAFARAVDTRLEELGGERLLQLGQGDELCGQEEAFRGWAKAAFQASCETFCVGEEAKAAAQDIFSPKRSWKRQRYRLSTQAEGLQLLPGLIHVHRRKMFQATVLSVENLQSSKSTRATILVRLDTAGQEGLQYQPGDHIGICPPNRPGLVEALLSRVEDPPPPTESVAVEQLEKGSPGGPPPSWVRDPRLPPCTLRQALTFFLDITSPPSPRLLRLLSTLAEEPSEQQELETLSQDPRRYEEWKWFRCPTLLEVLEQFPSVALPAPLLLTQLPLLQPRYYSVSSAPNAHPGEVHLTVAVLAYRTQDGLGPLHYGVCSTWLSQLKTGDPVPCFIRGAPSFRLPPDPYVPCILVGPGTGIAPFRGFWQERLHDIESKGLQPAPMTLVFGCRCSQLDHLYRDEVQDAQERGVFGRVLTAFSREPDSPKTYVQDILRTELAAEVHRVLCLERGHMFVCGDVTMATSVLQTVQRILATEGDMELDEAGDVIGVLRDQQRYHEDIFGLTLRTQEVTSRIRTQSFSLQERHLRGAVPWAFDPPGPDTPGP
Description: The inhibitory effects of all compounds against the three recombinant NOSs (rat nNOS, mouse iNOS, and bovine eNOS) were evaluated in 96-well plates using the oxyhemoglobin test [53].
NOS catalytic activity was measured using the hemoglobin capture assay [53]. The test was performed at 30 °C in 96-well microplates using a final volume of 200 µL. The assay mixture contained 100 µM NADPH, 10 µM BH4, 6 µM HbO2, 100 µM DTT, 5 µM FAD, 5 µM FMN, 10 µM (nNOS and eNOS), or 20 µM (iNOS) arginine, all in a 100 mM Hepes buffer, pH 7.5, and, for constitutive n- and e-NOS, 10 µg/mL calmodulin, and 1 mM CaCl2. The studied compounds were introduced as 2 μL of ×100 concentrated solutions in DMSO, and the control experiments were performed with DMSO or the buffer only. The kinetics of NO production were measured at 401 nm using an Infinite F500 microplate reader (Tecan, Singapore).

rat nNOS = target: T2, rat nNOS (Rattus norvegicus, UniProt P29476); experiment: NOS inhibition, oxyhemoglobin (hemoglobin capture) test, recombinant nNOS; assay type: biochemical
T2 construct: Full-length recombinant rat nNOS, mouse iNOS, bovine eNOS; made in house; host or cells: Escherichia coli
T2 sequence (P29476 whole entry): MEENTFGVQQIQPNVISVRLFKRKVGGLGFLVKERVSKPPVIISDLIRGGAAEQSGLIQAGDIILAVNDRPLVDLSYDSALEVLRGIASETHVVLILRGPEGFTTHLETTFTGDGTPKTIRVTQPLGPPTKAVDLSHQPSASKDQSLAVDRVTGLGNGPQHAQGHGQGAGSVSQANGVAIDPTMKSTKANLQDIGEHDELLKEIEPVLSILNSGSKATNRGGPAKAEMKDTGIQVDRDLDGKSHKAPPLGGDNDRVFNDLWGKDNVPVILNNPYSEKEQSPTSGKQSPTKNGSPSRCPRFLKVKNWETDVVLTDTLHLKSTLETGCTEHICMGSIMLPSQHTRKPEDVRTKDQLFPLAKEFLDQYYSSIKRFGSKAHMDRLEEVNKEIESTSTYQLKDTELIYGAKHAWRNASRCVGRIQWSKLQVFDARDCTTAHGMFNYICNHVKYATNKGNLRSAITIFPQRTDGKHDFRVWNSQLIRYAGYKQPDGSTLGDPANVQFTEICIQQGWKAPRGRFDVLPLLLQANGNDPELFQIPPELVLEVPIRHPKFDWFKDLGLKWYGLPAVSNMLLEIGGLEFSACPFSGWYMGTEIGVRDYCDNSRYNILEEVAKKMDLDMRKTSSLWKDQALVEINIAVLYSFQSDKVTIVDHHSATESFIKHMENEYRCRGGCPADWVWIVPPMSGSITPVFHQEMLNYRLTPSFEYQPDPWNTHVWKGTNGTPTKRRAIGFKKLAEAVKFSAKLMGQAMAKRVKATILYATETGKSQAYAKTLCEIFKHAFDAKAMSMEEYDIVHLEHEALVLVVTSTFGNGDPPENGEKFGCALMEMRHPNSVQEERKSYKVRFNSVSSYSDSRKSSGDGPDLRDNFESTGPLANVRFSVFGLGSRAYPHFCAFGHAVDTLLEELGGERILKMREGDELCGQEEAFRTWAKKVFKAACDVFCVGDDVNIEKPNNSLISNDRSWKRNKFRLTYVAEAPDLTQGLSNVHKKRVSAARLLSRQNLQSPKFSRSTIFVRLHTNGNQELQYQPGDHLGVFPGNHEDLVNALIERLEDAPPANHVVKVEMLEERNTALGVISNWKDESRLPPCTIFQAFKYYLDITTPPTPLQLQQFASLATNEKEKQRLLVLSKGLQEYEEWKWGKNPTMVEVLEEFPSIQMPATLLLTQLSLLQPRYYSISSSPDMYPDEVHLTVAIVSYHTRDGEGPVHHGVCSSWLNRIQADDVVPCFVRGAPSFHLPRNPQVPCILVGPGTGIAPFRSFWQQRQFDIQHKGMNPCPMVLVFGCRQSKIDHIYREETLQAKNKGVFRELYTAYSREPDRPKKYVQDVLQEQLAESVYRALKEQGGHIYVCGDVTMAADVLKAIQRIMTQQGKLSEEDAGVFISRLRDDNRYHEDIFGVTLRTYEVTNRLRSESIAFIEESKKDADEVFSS
Description: (§1) The inhibitory effects of all compounds against the three recombinant NOSs (rat nNOS, mouse iNOS, and bovine eNOS) were evaluated in 96-well plates using the oxyhemoglobin test. A first screening at 100 and 10 μM was performed, and the IC50 values were measured for compounds showing more than 50% inhibition at 100 μM (Table 1 and Table 2).
(§2) Full-length recombinant rat nNOS, mouse iNOS, bovine eNOS, and the heme domains of rat brain nNOS and mouse iNOS were expressed in Escherichia coli and purified as described previously.
(§3) NOS catalytic activity was measured using the hemoglobin capture assay. The test was performed at 30 °C in 96-well microplates using a final volume of 200 µL. The assay mixture contained 100 µM NADPH, 10 µM BH4, 6 µM HbO2, 100 µM DTT, 5 µM FAD, 5 µM FMN, 10 µM (nNOS and eNOS), or 20 µM (iNOS) arginine, all in a 100 mM Hepes buffer, pH 7.5, and, for constitutive n- and e-NOS, 10 µg/mL calmodulin, and 1 mM CaCl2. The studied compounds were introduced as 2 μL of ×100 concentrated solutions in DMSO, and the control experiments were performed with DMSO or the buffer only. The kinetics of NO production were measured at 401 nm using an Infinite F500 microplate reader (Tecan, Singapore).

mouse iNOS = target: T3, mouse iNOS (Mus musculus, UniProt P29477); experiment: NOS inhibition, oxyhemoglobin (hemoglobin capture) test, recombinant iNOS; assay type: biochemical; conditions: recombinant enzyme, 20 µM arginine, triplicate, NI = <50% inhibition at 100 μM
T3 construct: Full-length recombinant rat nNOS, mouse iNOS, bovine eNOS; made in house; host or cells: Escherichia coli
T3 sequence (P29477 1-1144): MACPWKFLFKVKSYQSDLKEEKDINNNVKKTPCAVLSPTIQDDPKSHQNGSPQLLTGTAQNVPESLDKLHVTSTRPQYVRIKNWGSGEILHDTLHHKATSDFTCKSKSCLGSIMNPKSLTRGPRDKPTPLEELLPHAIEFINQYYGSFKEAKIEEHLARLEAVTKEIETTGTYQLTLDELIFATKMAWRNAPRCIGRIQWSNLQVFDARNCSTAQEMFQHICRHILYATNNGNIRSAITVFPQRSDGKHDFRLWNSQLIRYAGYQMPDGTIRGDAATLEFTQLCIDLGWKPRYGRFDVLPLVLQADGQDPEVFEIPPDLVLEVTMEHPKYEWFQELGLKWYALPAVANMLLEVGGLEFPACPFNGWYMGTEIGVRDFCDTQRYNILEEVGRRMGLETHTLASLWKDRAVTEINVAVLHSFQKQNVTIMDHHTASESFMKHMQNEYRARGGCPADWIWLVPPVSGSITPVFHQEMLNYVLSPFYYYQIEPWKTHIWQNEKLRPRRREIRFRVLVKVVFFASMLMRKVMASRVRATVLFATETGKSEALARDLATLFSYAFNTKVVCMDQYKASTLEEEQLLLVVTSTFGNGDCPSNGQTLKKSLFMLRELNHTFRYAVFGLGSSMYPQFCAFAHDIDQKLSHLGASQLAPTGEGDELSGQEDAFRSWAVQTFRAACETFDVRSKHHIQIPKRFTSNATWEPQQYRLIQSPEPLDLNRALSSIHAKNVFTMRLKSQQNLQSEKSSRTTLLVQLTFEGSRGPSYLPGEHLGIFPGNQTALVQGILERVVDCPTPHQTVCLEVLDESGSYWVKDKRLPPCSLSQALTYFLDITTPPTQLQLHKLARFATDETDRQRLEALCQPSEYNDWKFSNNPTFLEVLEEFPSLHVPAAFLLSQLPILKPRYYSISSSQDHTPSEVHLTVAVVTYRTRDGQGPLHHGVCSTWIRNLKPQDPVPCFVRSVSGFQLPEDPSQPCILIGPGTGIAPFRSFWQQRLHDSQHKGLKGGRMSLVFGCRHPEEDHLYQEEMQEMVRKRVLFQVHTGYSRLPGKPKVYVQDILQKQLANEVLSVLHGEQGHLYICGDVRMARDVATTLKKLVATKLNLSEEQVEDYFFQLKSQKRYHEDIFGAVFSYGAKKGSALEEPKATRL
Description: as §1, §2, §3

RAW 264.7 cells = experiment: Cell viability, MTT assay; assay type: cell-based, murine; conditions: RAW 264.7, absence of LPS
Description: Cell viability was evaluated in the murine macrophage RAW 264.7 cells using an MTT assay for compounds 18, 21, 26, and 30. This experiment was performed without or with LPS (1 µg/mL), which induces iNOS expression (Figure S1). […] Compound 30 only killed 20% of the cells at 500 μM (Figure S1A). In the presence of LPS (1 µg/mL), cell viability was reduced by 30% due to the inhibition by NO of key enzymes involved in cell metabolism (Figure S1B).
The macrophage cell line RAW 264.7 (a gift from Dr. A. Blangy, Montpellier, France) was cultured in Dulbecco’s Modified Eagle’s Medium (DMEM) supplemented with 10% FCS, 100 units/mL penicillin, 100 µg/mL streptomycin, and 2 mM L-glutamine.
Cellular NO production was measured using the Griess reagent (Sigma-Aldrich), which evaluates the nitrite content in culture media. Cellular toxicity was estimated by the MTT assay (Sigma-Aldrich) in RAW 264.7 cells after the induction (or not) of iNOS by LPS, according to the manufacturer’s recommendations.

[1] = 1,2,4-oxadiazole series, recombinant enzyme, 10 µM arginine, triplicate, NI = <50% inhibition at 100 μM
[2] = dipeptide-like series, recombinant enzyme, 10 µM arginine, triplicate, NI = <50% inhibition at 100 μM

| Structure (SMILES) | IC50 (rat nNOS; [1]) [µM] | IC50 (mouse iNOS; 1,2,4-oxadiazole series) [µM] | inhibition at 100 µM (bovine eNOS; dipeptide-like series) [%] | IC50 (mouse iNOS; dipeptide-like series) [µM] | IC50 (rat nNOS; [2]) [µM] | other results |
| --- | --- | --- | --- | --- | --- | --- |
| CCSC(=N)NCCC[C@H](N)c1nc(CCN(Cc2cc(O)ccc2[N+](=O)[O-])Cc2cc(O)ccc2[N+](=O)[O-])no1 [Compound 42] | 1.1 | 7 |  |  |  | inhibition at 100 µM (bovine eNOS; 1,2,4-oxadiazole series): < 50% |
| CCSC(=N)NCCC[C@H](N)C(=O)N[C@H]1CCCN(Cc2ccccc2[N+](=O)[O-])C1 [Compound 12] |  |  | < 50 | 46 |  | inhibition at 100 µM (rat nNOS; dipeptide-like series, recombinant enzyme, 10 µM arginine, triplicate, NI = <50% inhibition at 100 μM, read-out: IC50 (μM) nNOS (Rat)): < 50% |
| CCSC(=N)NCCC[C@H](N)c1nc(CCNCc2cc(O)ccc2[N+](=O)[O-])no1 [Compound 41] | 3 | 36.3 |  |  |  |  |
| CCSC(=N)NCCC[C@H](N)c1nc(CCNCc2ccccc2)no1 [Compound 29] | 13.4 | 11.1 |  |  |  | IC50 (bovine eNOS; 1,2,4-oxadiazole series): 17.9 µM |
| CCSC(=N)NCCC[C@H](N)c1nc(CCN(Cc2ccc([N+](=O)[O-])cc2)Cc2ccc([N+](=O)[O-])cc2)no1 [Compound 37] | 0.3 | 15.8 |  |  |  | IC50 (bovine eNOS; 1,2,4-oxadiazole series): 11.8 µM; Selectivity for nNOS against eNOS (rat nNOS; from IC50 values): ~40 fold; Selectivity for nNOS against iNOS (rat nNOS; from IC50 values): ~50 fold; Gain in nNOS inhibition potency over non-substituted compound 28 (rat nNOS; times more potent than 28): 200 |
| CCSC(=N)NCCC[C@H](N)c1nc(CCN(Cc2ccccc2C)Cc2ccccc2C)no1 [Compound 31] | 9.9 | 11.1 |  |  |  | inhibition at 100 µM (bovine eNOS; 1,2,4-oxadiazole series): < 50% |
| CCSC(=N)NCCC[C@H](N)C(=O)N[C@H]1CCCN(Cc2cccc(-c3ccccc3)c2)C1 [Compound 25] |  |  | < 50 | 36.5 | 2.8 |  |
| CCSC(=N)NCCC[C@H](N)c1nc(CCN(Cc2ccccc2O)Cc2ccccc2O)no1 [Compound 36] | 3.1 | 24.3 |  |  |  | IC50 (bovine eNOS; 1,2,4-oxadiazole series): 20.2 µM |
| CCSC(=N)NCCC[C@H](N)C(=O)N[C@H]1CCCN(Cc2cc(OC)c(OC)c(OC)c2)C1 [Compound 16] |  |  | < 50 | 54.9 | 49.6 |  |
| CCSC(=N)NCCC[C@H](N)C(=O)N[C@H]1CCCN(Cc2cc(O)ccc2[N+](=O)[O-])C1 [Compound 15] |  |  | < 50 | 31.3 | 25.2 |  |
| CCSC(=N)NCCC[C@H](N)c1nc(CCNCc2ccccc2[N+](=O)[O-])no1 [Compound 39] | 27 | 8 |  |  |  | IC50 (bovine eNOS; 1,2,4-oxadiazole series): 48.2 µM |
| CCSC(=N)NCCC[C@H](N)C(=O)N[C@@H]1CCCN(Cc2ccccc2)C1 [Compound 8] |  |  | < 50 | 25.6 | 15.6 |  |
| CCSC(=N)NCCC[C@H](N)c1nc(CCN(Cc2ccccc2)Cc2ccccc2)no1 [Compound 30] | 1.6 | 1.3 |  |  |  | Cells killed (RAW 264.7 cells; 500 μM): 20%; Effect on cell viability (MTT) (RAW 264.7 cells; up to 100 μM): did not modify cell viability; IC50 (bovine eNOS; 1,2,4-oxadiazole series): 99.6 µM |
| CCSC(=N)NCCC[C@H](N)c1nc(CCN)no1 [Compound 28] | 58.9 | 83.7 |  |  |  | inhibition at 100 µM (bovine eNOS; 1,2,4-oxadiazole series): < 50% |
| CCSC(=N)NCCC[C@H](N)C(=O)N[C@@H]1CCCN(Cc2cc(O)ccc2O)C1 [Compound 11] |  |  |  | 73.4 |  | IC50 (bovine eNOS; dipeptide-like series): 25.4 µM |
| CCSC(=N)NCCC[C@H](N)c1nc(CCN(Cc2cccc([N+](=O)[O-])c2)Cc2cccc([N+](=O)[O-])c2)no1 [Compound 38] | 0.6 | 15.9 |  |  |  | IC50 (bovine eNOS; 1,2,4-oxadiazole series): 3.9 µM |
| CCSC(=N)NCCC[C@H](N)C(=O)N[C@H]1CCCN(Cc2ccccc2O)C1 [Compound 9] |  |  | < 50 | 51 | 51.1 |  |
| CCSC(=N)NCCC[C@H](N)C(=O)N[C@H]1CCCN(Cc2cccc(C(F)(F)F)c2)C1 [Compound 20] |  |  | < 50 |  | 15.4 | inhibition at 100 µM (mouse iNOS; dipeptide-like series, read-out: IC50 (μM) iNOS (Mouse)): < 50% |
| CCSC(=N)NCCC[C@H](N)C(=O)N[C@H]1CCCN(Cc2ccc(-c3cccc([N+](=O)[O-])c3)cc2)C1 [Compound 24] |  |  |  | 21.6 | 3.5 | IC50 (bovine eNOS; dipeptide-like series): 18 µM |
| CCSC(=N)NCCC[C@H](N)C(=O)N[C@@H]1CCCN(Cc2ccccc2[N+](=O)[O-])C1 [Compound 13] |  |  | < 50 | 78.9 | 30.6 |  |
| CCSC(=N)NCCC[C@H](N)c1nc(CCNCc2c(C)cccc2C)no1 [Compound 32] | 60.1 | 51.6 |  |  |  |  |
| CCSC(=N)NCCC[C@H](N)c1nc(CCN(Cc2cccc3ccccc23)Cc2cccc3ccccc23)no1 [Compound 34] | 1.4 | 4 |  |  |  | inhibition at 100 µM (bovine eNOS; 1,2,4-oxadiazole series): < 50% |
| CCSC(=N)NCCC[C@H](N)C(=O)N[C@H]1CCCN(Cc2cc(O)ccc2O)C1 [Compound 10] |  |  |  | 23.9 | 2 | IC50 (bovine eNOS; dipeptide-like series): 26.7 µM |
| CCSC(=N)NCCC[C@H](N)c1nc(CCN(Cc2c(C)cccc2C)Cc2c(C)cccc2C)no1 [Compound 33] | 10.1 | 71.5 |  |  |  | inhibition at 100 µM (bovine eNOS; 1,2,4-oxadiazole series): < 50% |

— article PMC10343299, “S-Ethyl-Isothiocitrullin-Based Dipeptides and 1,2,4-Oxadiazole Pseudo-Dipeptides: Solid Phase Synthesis and Evaluation as NO Synthase Inhibitors” (Molecules, 2023)
